Reference: patent US10683297B2 (Sunshine Lake Pharma Co., Ltd., priority 2017, dated 2020)

What was measured:
Type in all cases: biochemical
Settings in all cases: [γ-33P-ATP] 10 μM or KM values; 40 minutes at room temperature
Aurora-B (h) = target: T1, Aurora-B (h) (Homo sapiens, UniProt Q96GD4); experiment: Aurora-B (h) kinase assay
T1 construct: purchased Millipore UK Ltd (assays performed there as a service)
Description: (§1) The above assay procedure can be used to determine the IC50 for inhibition and/or the inhibition constant, Ki. […] The IC50 value is estimated by preparing a 10 point curve using a ½ log dilution series (for example, a typical curve may be prepared using the following compound concentrations: 3 μM, 1 μM, 0.3 μM, 0.1 μM, 0.03 μM, 0.01 μM, 0.003 μM, 0.001 μM, 0.0003 μM and 0 μM).
(§2) Aurora-B (h) is incubated with 8 mM MOPS pH 7.0, 0.2 mM EDTA, 30 μM […], 10 mM MgAcetate and [γ-^33PATP] […] The reaction is initiated by the addition of the MgATP mix. After incubation for 40 minutes at room temperature, the reaction is stopped by the addition of a 3% phosphoric acid solution. 10 μL of the reaction is then spotted onto a P30 filtermat and washed three times for 5 minutes in 75 mM phosphoric acid and once in methanol prior to drying and scintillation counting.
(§3) The kinase assays described herein were performed at Millipore UK Ltd, Dundee Technology Park, Dundee DD2 1SW, UK.

TYK2 (h) = target: T2, TYK2 (h) (Homo sapiens, UniProt P29597); experiment: TYK2 (h) kinase assay
T2 construct: purchased Millipore UK Ltd (assays performed there as a service)
Description: (§4) Kinase assays can be performed by measurement of incorporation of γ-^33P ATP into immobilized myelin basic protein (MBP). High binding white 384 well plates (Greiner) are coated with MBP (Sigma # M-1891) by incubation of 60 μL well of 20 μg/mL MBP in Tris-buffered saline (TBS; 50 mM Tris pH 8.0, 138 mM NaCl, 2.7 mM KCl) for 24 h at 4° C. Plates are washed 3× with 100 μL TBS. Kinase reactions are carried out in a total volume of 34 μL in kinase buffer (according to the need to make, for example, 5 mM Hepes pH 7.6, 15 mM NaCl, 0.01% bovine gamma globulin (Sigma #1-5506), 10 mM MgCl2, 1 mM DTT, 0.02% TritonX-100). Compound dilutions are performed in DMSO and added to assay wells to a final DMSO concentration of 1%. Each data point is measured in duplicate, and at least two duplicate assays are performed for each individual compound determination. Enzyme is added to final concentrations of 10 nM or 20 nM, for example. A mixture of unlabeled ATP and γ-^33P ATP is added to start the reaction (2×10^6 cpm of γ-^33P ATP per well (3000 Ci/mmole) and 10 μM unlabeled ATP, typically. The reactions are carried out for 1 hour at room temperature with shaking. Plates are washed 7× with TBS, followed by the addition of 50 μL well scintillation fluid (Wallac). Plates are read using a Wallac Trilux counter. This is only one format of such assays; various other formats are possible, as known to one skilled in the art.
as §1
as §2, with “TYK2 (h)” for “Aurora-B (h)”, “EDTA, 250” for “EDTA, 30”, “and [γ-^33P-ATP]” for “and [γ-^33PATP]”, “of” for “of a”
as §3

JAK3 (h) = target: T3, JAK3 (h) (Homo sapiens, UniProt P52333); experiment: JAK3 (h) kinase assay
T3 construct: purchased Millipore UK Ltd (assays performed there as a service)
T3 sequence (P52333 1-1124): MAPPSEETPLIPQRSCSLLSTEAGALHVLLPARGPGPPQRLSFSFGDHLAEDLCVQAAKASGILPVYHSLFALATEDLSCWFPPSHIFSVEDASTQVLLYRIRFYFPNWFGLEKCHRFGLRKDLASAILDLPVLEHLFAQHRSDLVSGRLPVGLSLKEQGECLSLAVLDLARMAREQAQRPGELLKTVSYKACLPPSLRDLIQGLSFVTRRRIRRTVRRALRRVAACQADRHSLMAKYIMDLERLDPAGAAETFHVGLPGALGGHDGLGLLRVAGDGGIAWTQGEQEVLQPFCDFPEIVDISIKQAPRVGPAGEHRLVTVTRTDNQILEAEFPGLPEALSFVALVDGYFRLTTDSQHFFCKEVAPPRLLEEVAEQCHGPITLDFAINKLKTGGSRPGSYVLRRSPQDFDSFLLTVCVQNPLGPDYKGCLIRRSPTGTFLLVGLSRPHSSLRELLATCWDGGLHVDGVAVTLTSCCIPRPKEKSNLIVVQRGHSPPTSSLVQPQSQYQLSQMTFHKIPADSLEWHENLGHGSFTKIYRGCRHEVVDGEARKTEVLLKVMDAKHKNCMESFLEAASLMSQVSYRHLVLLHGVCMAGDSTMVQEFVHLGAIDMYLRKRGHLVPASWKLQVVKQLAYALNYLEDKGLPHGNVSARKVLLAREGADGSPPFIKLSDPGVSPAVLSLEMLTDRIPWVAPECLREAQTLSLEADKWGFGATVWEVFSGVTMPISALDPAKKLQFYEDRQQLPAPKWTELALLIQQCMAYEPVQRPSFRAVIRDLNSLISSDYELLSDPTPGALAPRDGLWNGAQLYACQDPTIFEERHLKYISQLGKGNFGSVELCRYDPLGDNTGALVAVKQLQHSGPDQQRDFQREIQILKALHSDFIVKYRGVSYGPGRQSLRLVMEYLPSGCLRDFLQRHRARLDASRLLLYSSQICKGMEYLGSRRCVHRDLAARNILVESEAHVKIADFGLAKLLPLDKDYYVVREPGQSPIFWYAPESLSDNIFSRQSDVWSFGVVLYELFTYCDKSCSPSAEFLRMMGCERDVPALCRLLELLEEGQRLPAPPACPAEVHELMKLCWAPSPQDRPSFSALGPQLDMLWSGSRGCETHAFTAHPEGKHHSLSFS
Description: as §4, §1
[…] The reaction is initiated by the addition of the MgATP mix. After incubation for 40 minutes at room temperature, the reaction is stopped by the addition of 3% phosphoric acid solution. 10 μL of the reaction is then spotted onto a P30 filtermat and washed three times for 5 minutes in 75 mM phosphoric acid and once in methanol prior to drying and scintillation counting.
as §3

T1 sequence (Q96GD4 whole entry): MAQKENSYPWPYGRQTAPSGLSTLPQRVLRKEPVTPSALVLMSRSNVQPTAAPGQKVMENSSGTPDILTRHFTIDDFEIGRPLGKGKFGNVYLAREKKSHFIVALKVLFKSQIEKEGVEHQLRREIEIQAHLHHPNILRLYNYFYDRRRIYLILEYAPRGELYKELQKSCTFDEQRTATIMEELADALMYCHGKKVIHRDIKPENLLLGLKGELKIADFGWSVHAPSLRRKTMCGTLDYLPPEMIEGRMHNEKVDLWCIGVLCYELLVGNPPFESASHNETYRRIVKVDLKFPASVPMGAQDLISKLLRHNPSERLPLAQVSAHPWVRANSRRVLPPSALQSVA
T2 sequence (P29597 whole entry): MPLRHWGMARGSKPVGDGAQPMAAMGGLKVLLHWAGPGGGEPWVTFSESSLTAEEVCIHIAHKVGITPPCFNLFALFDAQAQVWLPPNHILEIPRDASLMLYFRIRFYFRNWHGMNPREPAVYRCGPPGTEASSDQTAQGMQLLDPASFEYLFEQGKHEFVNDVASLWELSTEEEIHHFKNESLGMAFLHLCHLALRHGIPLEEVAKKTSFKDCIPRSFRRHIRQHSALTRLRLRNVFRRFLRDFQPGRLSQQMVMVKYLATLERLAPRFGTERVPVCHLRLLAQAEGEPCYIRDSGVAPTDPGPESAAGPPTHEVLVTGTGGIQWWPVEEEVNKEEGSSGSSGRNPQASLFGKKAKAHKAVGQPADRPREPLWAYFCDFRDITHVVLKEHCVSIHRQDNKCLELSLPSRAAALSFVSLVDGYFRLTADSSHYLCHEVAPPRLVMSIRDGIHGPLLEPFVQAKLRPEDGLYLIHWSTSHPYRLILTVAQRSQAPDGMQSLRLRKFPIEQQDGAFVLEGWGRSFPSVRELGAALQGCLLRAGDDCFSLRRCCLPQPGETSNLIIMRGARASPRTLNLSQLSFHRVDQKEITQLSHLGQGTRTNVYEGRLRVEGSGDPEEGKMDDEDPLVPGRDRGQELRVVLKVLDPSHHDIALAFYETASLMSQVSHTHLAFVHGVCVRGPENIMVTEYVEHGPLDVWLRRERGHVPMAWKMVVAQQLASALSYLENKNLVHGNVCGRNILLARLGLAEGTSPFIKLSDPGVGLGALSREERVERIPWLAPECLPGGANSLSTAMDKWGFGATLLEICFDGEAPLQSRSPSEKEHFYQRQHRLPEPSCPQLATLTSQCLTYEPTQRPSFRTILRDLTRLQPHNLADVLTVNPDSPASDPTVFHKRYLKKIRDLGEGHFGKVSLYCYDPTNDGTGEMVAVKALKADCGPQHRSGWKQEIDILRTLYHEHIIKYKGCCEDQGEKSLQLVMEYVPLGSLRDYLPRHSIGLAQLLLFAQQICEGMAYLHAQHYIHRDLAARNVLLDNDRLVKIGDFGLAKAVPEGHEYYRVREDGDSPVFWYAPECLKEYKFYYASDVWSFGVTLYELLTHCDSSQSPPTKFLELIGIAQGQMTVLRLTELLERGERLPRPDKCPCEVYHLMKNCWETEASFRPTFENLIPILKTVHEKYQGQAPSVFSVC

IC50 (Aurora-B (h)): 185 nM
IC50 (TYK2 (h)): 5 nM
IC50 (JAK3 (h)): 344 nM
SMILES: CC(C)(O)Cc1nc2cc(Nc3ncc(Cl)c(NC4CCN(c5ccc(C#N)cn5)CC4)n3)ccn2n1 [Example 78, 6-(4-((5-chloro-2-((2-(2-hydroxy-2-methylpropyl)-[1,2,4]triazolo[1,5-a]pyridin-7-yl)amino)pyrimidin-4-yl)amino)piperidin-1-yl)nicotinonitrile]
